Data published in the supplement of paper PMC10307832.

What was measured:
Assay in all cases: relative viability (nuclei count vs DMSO), 5 days (fraction); higher = more cells survive
[1] = compound: COC1=C(C=C(C=C1)C2=CC3=NC=CN3C(=N2)NC4=C(C=CC=N4)C(=O)N)OC [BAY61-3606] + COc1cccc2cc(-c3nc([C@H]4CC[C@H](C(=O)O)CC4)n4ncnc(N)c34)[nH]c12 [OSI-027] (partner 0.5 µM)
In short: (§1)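 Lung cancer cell lines in 1536-well plates were dosed by pin tool the day after seeding, either with one drug alone or with a fixed anchor-drug dose plus five library-drug doses (not always all listed) in √10 steps. After 5 days, cells were fixed and their nuclei stained in one step (final 0.05% Triton X-100, 1% formaldehyde, 1 ug/ml Hoechst), then counted on 4× images. Relative viability is the nuclei count in treated wells divided by that in vehicle wells. Values are medians of duplicate plates.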

[2] = compound: COC1=C(C=C(C=C1)C2=CC3=NC=CN3C(=N2)NC4=C(C=CC=N4)C(=O)N)OC [BAY61-3606] + CS(=O)(=O)N1CCN(Cc2cc3nc(-c4cccc5[nH]ncc45)nc(N4CCOCC4)c3s2)CC1 [Pictilisib] (partner 1 µM)
In short: as §1

[3] = compound: COc1cccc2c1C(=O)c1c(O)c3c(c(O)c1C2=O)C[C@@](O)(C(=O)CO)C[C@@H]3O[C@H]1C[C@H](N)[C@H](O)[C@H](C)O1 [Doxorubicin] + CS(=O)(=O)CCNCc1ccc(-c2ccc3ncnc(Nc4ccc(OCc5cccc(F)c5)c(Cl)c4)c3c2)o1 [Lapatinib] (partner 2 µM)
In short: as §1

[4] = compound: COc1cccc2c1C(=O)c1c(O)c3c(c(O)c1C2=O)C[C@@](O)(C(=O)CO)C[C@@H]3O[C@H]1C[C@H](N)[C@H](O)[C@H](C)O1 [Doxorubicin] + Cc1nc(Nc2ncc(C(=O)Nc3c(C)cccc3Cl)s2)cc(N2CCN(CCO)CC2)n1 [Dasatinib] (partner 0.075 µM)
In short: as §1

Row | Cell Line | relative viability ([1]; first compound 0.02 µM) | relative viability ([1]; first compound 0.06325 µM) | relative viability ([1]; first compound 0.2 µM) | relative viability ([1]; first compound 0.6325 µM) | relative viability ([1]; first compound 2 µM) | relative viability ([2]; first compound 0.02 µM) | relative viability ([2]; first compound 0.06325 µM) | relative viability ([2]; first compound 0.2 µM) | relative viability ([2]; first compound 0.6325 µM) | relative viability ([2]; first compound 2 µM) | relative viability ([3]; first compound 0.001 µM) | relative viability ([3]; first compound 0.003162 µM) | relative viability ([3]; first compound 0.01 µM) | relative viability ([3]; first compound 0.03162 µM) | relative viability ([3]; first compound 0.1 µM) | relative viability ([4]; first compound 0.001 µM) | relative viability ([4]; first compound 0.003162 µM) | relative viability ([4]; first compound 0.01 µM) | relative viability ([4]; first compound 0.03162 µM) | relative viability ([4]; first compound 0.1 µM)
1 | NCI-H322M | 0.53 | 0.592 | 0.562 | 0.582 | 0.47 | 0.506 | 0.529 | 0.516 | 0.523 | 0.482 | 0.636 | 0.563 | 0.547 | 0.521 | 0.569 | 0.29 | 0.237 | 0.27 | 0.275 | 0.272
2 | NCI-H1792 | 0.756 | 0.716 | 0.712 | 0.644 | 0.528 | 0.293 | 0.176 | 0.328 | 0.363 | 0.303 | 0.942 | 0.911 | 0.874 | 0.865 | 0.89 | – | 0.901 | 0.741 | 0.769 | 0.706
3 | HCC-827 | 0.698 | 0.845 | 0.817 | 0.803 | 0.787 | 1.03 | 0.893 | 1.15 | 1.09 | 0.915 | 0.322 | 0.322 | 0.182 | 0.201 | 0.22 | 0.3 | 0.335 | 0.29 | 0.304 | 0.365
4 | LU99A | 0.315 | 0.271 | 0.298 | 0.26 | 0.306 | 0.343 | 0.352 | 0.34 | 0.329 | 0.278 | 1.01 | 1.16 | 0.954 | 0.583 | 0.788 | 0.359 | 0.526 | 0.527 | 0.422 | 0.361
5 | LC-2-ad | 0.853 | 0.772 | 0.8 | 0.997 | 0.654 | 0.405 | 0.429 | 0.29 | 0.468 | 0.235 | 0.838 | 0.958 | 0.935 | 0.697 | 0.255 | 0.691 | 0.602 | 0.489 | 0.209 | 0.161
6 | NCI-H460 | 0.781 | 0.672 | 0.657 | 0.467 | 0.214 | 0.433 | 0.353 | 0.319 | 0.35 | 0.377 | 0.86 | 0.592 | 0.247 | 0.0187 | 0.0161 | 0.507 | 0.427 | 0.405 | 0.171 | 0.0701
7 | HOP-62 | 0.859 | 0.838 | 0.774 | 0.786 | 0.714 | 0.68 | – | 0.582 | 0.783 | 0.53 | 0.811 | 1.15 | 1.02 | 1.1 | 0.853 | 0.68 | 0.737 | 0.601 | 0.628 | 0.552
8 | NCI-H1993 | 0.586 | 0.583 | 0.505 | 0.564 | 0.587 | 0.871 | 0.764 | 0.755 | 0.868 | 0.804 | 0.823 | 0.778 | 0.748 | 0.633 | 0.501 | 0.714 | 0.6 | 0.512 | 0.479 | 0.427
9 | NCI-H1734 | 0.605 | 0.523 | 0.529 | 0.542 | 0.372 | 0.46 | 0.459 | 0.485 | 0.406 | 0.324 | 1.07 | 1.06 | 0.948 | 0.53 | 0.466 | 0.517 | 0.572 | 0.385 | 0.317 | 0.255
10 | NCI-H1666 | 0.817 | 0.84 | 0.824 | 0.894 | 0.841 | 0.521 | – | 0.447 | 0.375 | 0.395 | 0.699 | 0.507 | 0.296 | 0.25 | 0.236 | 0.812 | 0.811 | 0.461 | 0.359 | 0.318
11 | NCI-H647 | 0.648 | 0.567 | 0.691 | 0.423 | 0.277 | 0.622 | 0.297 | 0.435 | 0.404 | 0.365 | 1.02 | 1.24 | 0.643 | 0.119 | 0.0876 | 0.186 | 0.212 | 0.166 | 0.152 | 0.0503
12 | LCLC-97TM1 | 0.515 | 0.608 | 0.581 | 0.423 | 0.392 | 0.272 | – | 0.28 | 0.178 | 0.179 | 1.13 | 0.917 | 0.847 | 0.63 | 0.579 | 0.836 | 0.776 | 0.831 | 0.734 | 0.884
13 | LOU-NH91 | 0.743 | 0.725 | 0.766 | 0.719 | 0.708 | 0.566 | 0.544 | 0.568 | 0.505 | 0.472 | – | 0.736 | 0.765 | 0.579 | 0.599 | 0.488 | 0.646 | 0.529 | 0.531 | 0.474
14 | RERF-LC-KJ | 0.605 | 0.533 | 0.573 | 0.621 | 0.379 | 0.532 | 0.411 | 0.59 | 0.577 | 0.441 | 0.905 | 0.817 | 0.863 | 0.759 | 0.815 | 0.85 | 0.83 | 0.706 | 0.318 | 0.278
15 | NCI-H1437 | 0.941 | 0.924 | 0.921 | 0.936 | 0.784 | 0.532 | 0.44 | 0.507 | 0.442 | 0.391 | 0.772 | 0.836 | 0.61 | 0.278 | 0.209 | 0.369 | 0.391 | 0.3 | 0.459 | 0.152
16 | NCI-H2087 | 0.47 | 0.577 | 0.557 | 0.555 | 0.417 | 1.05 | 0.937 | 0.865 | 0.878 | 0.666 | 0.749 | 1.01 | 0.815 | 0.759 | 0.529 | – | 0.844 | 0.769 | 0.475 | 0.222
